Assays:
[1] = target: T1, human DGAT-1 enzyme over expressed in Sf9 cell-line (Homo sapiens, UniProt O75907); experiment: hDGAT-1 assay (inhibition of [14C]triglyceride formation by microsomes); assay type: biochemical
T1 construct: hDGAT-1 ORF expression clone (RZPD0839C09146 in pDEST vector) was obtained from RZPD, Germany; made in house; host or cells: Sf9 insect cells (baculovirus, Bac-to-Bac); microsomal fraction
T1 sequence (O75907 1-488): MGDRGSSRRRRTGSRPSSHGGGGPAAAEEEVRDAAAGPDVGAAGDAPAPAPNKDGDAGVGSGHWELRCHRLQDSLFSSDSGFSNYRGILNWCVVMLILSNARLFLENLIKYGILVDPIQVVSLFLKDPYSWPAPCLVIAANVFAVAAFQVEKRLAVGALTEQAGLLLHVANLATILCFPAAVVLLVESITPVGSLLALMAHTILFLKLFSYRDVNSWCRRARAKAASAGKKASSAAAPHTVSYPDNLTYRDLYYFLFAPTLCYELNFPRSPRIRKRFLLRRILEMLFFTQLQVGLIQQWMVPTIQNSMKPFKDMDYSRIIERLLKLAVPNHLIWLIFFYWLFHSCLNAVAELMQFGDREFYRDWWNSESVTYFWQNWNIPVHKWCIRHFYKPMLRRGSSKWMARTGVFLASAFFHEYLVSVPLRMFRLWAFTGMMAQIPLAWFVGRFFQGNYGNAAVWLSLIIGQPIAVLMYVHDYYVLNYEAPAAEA
Description: The DGAT-1 assay was designed using human DGAT-1 enzyme over expressed in Sf9 cell-line as described in the reference, European Journal of Pharmacology, 650, 663-672, (2011), the disclosure of which is incorporated by reference for the teaching of the assay.
hDGAT-1 Enzyme preparation: Enzyme was diluted to a working concentration of 1 mg/mL in hDGAT-1 assay buffer, 2.5 μL of the working enzyme stock was used in hDGAT-1 assay (final concentration 25 μg/mL).
The test samples were prepared as follows. A stock solution of 20 mg/mL was prepared for each extract (Extract of Example 1 to Extract of Example 7) in 100% dimethyl sulfoxide (DMSO). The working stock was prepared in hDGAT-1 assay buffer. […]
Three different concentrations for dose response (i.e. 25 μg/mL, 50 μ/mL and 100 μg/mL) were prepared for Extract of Example 1 by serial dilution of stock solution.
60 μL of substrate mix (as described above) was added to a total assay volume of 100 μL. The reaction was started by adding 2.5 μg hDGAT-1 containing microsomal protein and was incubated at 37° C. for 10 min. The reaction was stopped by adding 300 μL of alkaline ethanol stop solution mix (AESSM). The reaction involves the incorporation of radioactive [^14C] oleoyl-CoA into the third hydroxyl group (OH) of 1,2-dioleoyl-sn-glycerol to form the radioactive triglyceride ([^14C] triglyceride) which was then extracted into the upper heptane phase. The radioactive triglyceride product thus formed was separated into the organic phase by adding 600 μL of n-heptane. 250 μL of the upper heptane was added into 4 mL of scintillation fluid and measured using a liquid scintillation counter (Packard; 1600CA) as disintegration per min (dpm) counts. The percentage inhibition was calculated with respect to the vehicle. […]

[2] = tested on: high fat diet (HFD) induced obesity model; experiment: High fat diet (HFD)-induced body weight gain study in mice; assay type: in vivo; conditions: Mean ± S.E.M.
Description: A HFD induced body weight gain study in mice was conducted to evaluate the efficacy of the Extract of Example 1.
Male C57BL/6J mice (in-house; Central Animal Facility, Piramal Healthcare Limited, Goregaon, Mumbai, Maharashtra, India) were acclimatized with HFD (60% Kcal, D12492, Research Diets, USA) for two weeks.
A suspension of Extract of Example 1 was prepared in polyethyleneglycol 400 (30%) (PEG 400, Fisher Scientific, India) and 0.5% carboxy methylcellulose (70%) (CMC, Sigma, USA).
The Extract of Example 1 was administered at a dose of 500 mg/kg body-weight orally, once daily. Orlistat (Biocon, India) was used as the standard drug and was administered orally at a dose of 15 mg/kg body weight, twice daily. A separate group of ten mice was fed a low fat diet (LED, 10% kcal, D12450B, Research Diet, USA) as a normal control. Vehicle was administered to the HFD and LFD control groups at dose of 10 mL/kg body weight.
The treatments were continued for a period of sixty days. Body weight and feed intake were monitored daily. The % change in body weight (% increase in body weight from day 1) and the cumulative feed intake data was calculated. On day sixtyone, blood samples (˜200 μL/mice) were collected in heparinised (50 IU/mL) micro-centrifuge tubes under isoflurane anesthesia. Plasma was separated by centrifugation at 10000 rpm at 4° C. for estimation of various plasma biochemistry parameters. The biochemistry analysis was performed on BS-400 autoanalyzer (Mindray, China). Subsequently, the mice were sacrificed and following organs/tissues were dissected out and weighed viz., liver, heart, kidneys, epididymal fat and retroperitoneal fat. All the data was analyzed for statistical significance by one-way ANOVA followed by Dunnet's post-hoc test and values of P<0.05 were considered as significant. All analyses were carried out using GraphPad Prism version 4.00 for Windows (GraphPad Software, San Diego, Calif., USA).

[3] = HFD-fed mice after 60 days treatment, Extract 500 mg/kg once daily, Orlistat 15 mg/kg twice daily, oral
[4] = HFD-fed mice, Day 60, Extract 500 mg/kg orally once daily, Orlistat 15 mg/kg orally twice daily

Row | % inhibition of hDGAT-1 ([1]; Table 1, 20 nM) | % inhibition of hDGAT-1 ([1]; Table 1, 0.1 μM) | % inhibition of hDGAT-1 ([1]; Table 2, 20 nM) | % inhibition of hDGAT-1 ([1]; Table 2, 0.1 μM) | SMILES | Body Weight (g) (Day 0) ([2]; HFD-fed male C57BL/6J mice, baseline Day 0) | Epididymal Fat [2, 3] | Retroperitoneal Fat [2, 3] | % Change in body weight ([2]; HFD-fed mice, % increase in body weight from day 1, 60 days, Extract 500 mg/kg orally once daily, Orlistat 15 mg/kg orally twice daily) | Body Weight (g) (Day 60) [2, 4] | Cumulative Feed intake (g/mice) (Day 60) [2, 4] | Total Fat ([2]; Total fat = Epididymal fat + Retroperitoneal fat, HFD-fed mice after 60 days treatment)
1 | 46.27% | 66.04% | 48.82% | 74.26% | CC1(C)Oc2ncncc2N=C1c1ccc([C@H]2CC[C@@H](CC(=O)O)CC2)cc1 [IN5530, 2-((1s,4s)-4-(4-(7,7-dimethyl-7H-pyrimido [4,5-b][1,4]oxazin-6-yl)phenyl)cyclohexyl)acetic acid] |  |  |  |  |  |  | 
2 |  |  |  |  | CCCCCCCCCCC[C@@H](C[C@@H]1OC(=O)[C@H]1CCCCCC)OC(=O)[C@H](CC(C)C)NC=O [Orlistat] | 26.4 ± 0.4 g | 1.07 ± 0.10 g | 0.42 ± 0.05 g | 16.74 ± 2.70% | 30.9 ± 0.9 g | 119.7 ± 4.7 g/mice | 1.49 ± 0.15 g

— patent US20150050373A1, “HERBAL COMPOSITION FOR THE TREATMENT OF METABOLIC DISORDERS” (PIRAMAL ENTERPRISES LIMITED, priority 2012, published 2015)
